Our source for the IC50 values is patent US9096548B2, “Pyrazine amide compounds” (Boehringer Ingelheim International GmbH, priority 2013, dated 2015).

The assay addresses T1, ENaC (Epithelial Sodium Channel) (Mus musculus, UniProt Q61180+Q9WU38+Q9WU39).
T1 construct: Mouse kidney M−1 cells were cultivated in DMEM; endogenous in cells; host or cells: Mouse kidney M-1 cells, cultivated with dexamethasone on transwell filters
T1 sequence (Q61180 1-699): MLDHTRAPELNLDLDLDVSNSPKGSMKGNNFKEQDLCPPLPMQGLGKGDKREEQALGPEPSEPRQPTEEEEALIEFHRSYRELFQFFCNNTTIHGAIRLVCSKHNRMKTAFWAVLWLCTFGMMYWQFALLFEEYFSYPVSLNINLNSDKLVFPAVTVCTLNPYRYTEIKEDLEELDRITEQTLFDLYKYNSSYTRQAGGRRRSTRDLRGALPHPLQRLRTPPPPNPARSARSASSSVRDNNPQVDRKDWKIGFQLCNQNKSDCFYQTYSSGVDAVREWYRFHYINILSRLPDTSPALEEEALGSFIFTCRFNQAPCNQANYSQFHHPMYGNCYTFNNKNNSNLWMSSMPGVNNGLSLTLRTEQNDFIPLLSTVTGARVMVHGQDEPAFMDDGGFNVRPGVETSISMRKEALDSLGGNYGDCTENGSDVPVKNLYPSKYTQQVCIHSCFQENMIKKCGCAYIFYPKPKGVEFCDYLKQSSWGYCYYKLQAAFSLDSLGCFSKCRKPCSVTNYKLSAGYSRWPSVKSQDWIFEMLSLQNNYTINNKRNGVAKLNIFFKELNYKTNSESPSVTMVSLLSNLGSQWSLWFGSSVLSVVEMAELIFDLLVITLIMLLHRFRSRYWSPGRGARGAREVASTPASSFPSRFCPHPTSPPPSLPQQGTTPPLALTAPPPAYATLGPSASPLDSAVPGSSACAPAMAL
T1 sequence (Q9WU38 1-638): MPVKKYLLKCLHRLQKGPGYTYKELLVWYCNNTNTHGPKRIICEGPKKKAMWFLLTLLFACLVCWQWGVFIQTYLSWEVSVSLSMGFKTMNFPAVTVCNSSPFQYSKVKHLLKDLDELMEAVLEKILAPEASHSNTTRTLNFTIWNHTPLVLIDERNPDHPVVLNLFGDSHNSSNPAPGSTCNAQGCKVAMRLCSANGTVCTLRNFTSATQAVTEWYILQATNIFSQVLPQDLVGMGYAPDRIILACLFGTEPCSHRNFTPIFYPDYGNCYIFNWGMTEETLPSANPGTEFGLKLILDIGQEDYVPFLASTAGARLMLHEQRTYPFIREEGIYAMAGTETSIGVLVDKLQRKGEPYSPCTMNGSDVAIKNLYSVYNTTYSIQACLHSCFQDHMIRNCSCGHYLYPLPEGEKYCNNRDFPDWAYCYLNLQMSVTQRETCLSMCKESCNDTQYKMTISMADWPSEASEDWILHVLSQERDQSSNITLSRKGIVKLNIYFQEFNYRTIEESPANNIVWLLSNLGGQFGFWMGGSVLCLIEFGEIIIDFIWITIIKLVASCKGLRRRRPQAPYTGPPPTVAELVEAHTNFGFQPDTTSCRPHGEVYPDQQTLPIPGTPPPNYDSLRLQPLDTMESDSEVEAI
T1 sequence (Q9WU39 1-655): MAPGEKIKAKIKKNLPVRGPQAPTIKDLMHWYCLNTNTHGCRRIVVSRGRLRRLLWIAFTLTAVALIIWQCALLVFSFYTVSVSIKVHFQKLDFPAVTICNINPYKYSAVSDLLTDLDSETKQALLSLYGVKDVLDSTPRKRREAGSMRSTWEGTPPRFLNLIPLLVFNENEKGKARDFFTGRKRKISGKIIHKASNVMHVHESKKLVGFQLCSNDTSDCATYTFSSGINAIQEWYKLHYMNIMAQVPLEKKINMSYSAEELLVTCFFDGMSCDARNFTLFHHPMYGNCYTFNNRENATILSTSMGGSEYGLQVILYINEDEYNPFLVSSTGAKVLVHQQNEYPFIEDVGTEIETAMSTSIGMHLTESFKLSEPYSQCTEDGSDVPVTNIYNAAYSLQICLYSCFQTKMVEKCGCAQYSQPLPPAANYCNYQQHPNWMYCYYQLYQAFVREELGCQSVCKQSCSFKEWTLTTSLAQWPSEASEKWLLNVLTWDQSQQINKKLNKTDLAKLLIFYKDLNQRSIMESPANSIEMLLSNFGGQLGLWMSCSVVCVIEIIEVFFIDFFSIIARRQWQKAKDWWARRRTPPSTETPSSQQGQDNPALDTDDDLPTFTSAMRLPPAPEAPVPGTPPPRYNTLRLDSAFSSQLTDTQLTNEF
Kind of assay: Ussing Chamber assay (short circuit current, amiloride sensitive I_SC). It is filed as cell-based. Particulars: Ussing chamber, mouse kidney M-1 cells, short circuit current, compound added to the apical solution; read-out: IC50. How it is done: The IC50 values of the example compounds given above were determined in the Ussing Chamber assay.
Ussing Chamber: Mouse kidney M−1 cells were cultivated in DMEM containing 5% FCS and 5 μM dexamethasone for 10 to 12 days on polyester transwell filters. Filters were inserted into a teflon-coated well-plate which fit into the ussing chamber system. Prior to measurement the medium of M−1 cells was replaced with Caco-2 transport buffer (Invitrogen, Germany). During measurements, the Ussing chamber temperature was kept at 37° C. Short circuit currents (I_sc) were measured in the voltage-clamp mode with the software package Lab View for data acquisition and analysis. The transepithelial electrical resistance (TEER) was determined by the application of voltage steps of ±5 mV every 5 sec. Compounds were administered at a final concentration of 3 μM or at increasing concentrations (1-3-10 μM) to the apical solution. At the end of each experiment the amiloride sensitive I_SC was measured by adding 3 μM amiloride to the apical compartment. Results are expressed as inhibition in percent of the amiloride effect or as IC50.
As to `Nc1nc(N)c(C(=O)N[C@H]2CCC[N+](CCCc3ccc(OCC(=O)NC4CCS(=O)(=O)C4)cc3)(CCCc3ccc(OCC(=O)NC4CCS(=O)(=O)C4)cc3)C2)nc1Cl` (some centres unmarked) [Example 6.23], the IC50 amounted to 35 nM.
`Nc1nc(N)c(C(=O)N[C@H]2CCC[N+](CCCc3ccc(OCC(=O)N4CCS(=O)(=O)CC4)cc3)(CCCc3ccc(OCC(=O)N4CCS(=O)(=O)CC4)cc3)C2)nc1Cl` [Example 6.24]: the IC50 came out at 47 nM.
As to `Nc1nc(N)c(C(=O)N[C@H]2CCC[N+](CCCc3ccc(OCC(=O)NCCCCO)cc3)(CCCc3ccc(OCC(=O)NCCCCO)cc3)C2)nc1Cl` [Example 6.25], the IC50 amounted to 14 nM.
On to `CC(O)CN(C)C(=O)COc1ccc(CCC[N+]2(CCCc3ccc(OCC(=O)N(C)CC(C)O)cc3)CCC[C@H](NC(=O)c3nc(Cl)c(N)nc3N)C2)cc1` (some centres unmarked) [Example 6.26], for which the IC50 worked out at 70 nM.
`CN(Cc1cccnc1)C(=O)COc1ccc(CCC[N+]2(CCCc3ccc(OCC(=O)N(C)Cc4cccnc4)cc3)CCC[C@H](NC(=O)c3nc(Cl)c(N)nc3N)C2)cc1` [Example 6.27]: the IC50 was 17 nM.
Take `CN(C)C(=O)CNC(=O)COc1ccc(CCC[N+]2(CCCc3ccc(OCC(=O)NCC(=O)N(C)C)cc3)CCC[C@H](NC(=O)c3nc(Cl)c(N)nc3N)C2)cc1` [Example 6.28]: the IC50 turned out to be 41 nM.
With `CN(CCC#N)C(=O)COc1ccc(CCC[N+]2(CCCc3ccc(OCC(=O)N(C)CCC#N)cc3)CCC[C@H](NC(=O)c3nc(Cl)c(N)nc3N)C2)cc1` [Example 6.29], the IC50 was determined as 105 nM.
Turning to `Nc1nc(N)c(C(=O)N[C@H]2CCC[N+](CCCc3ccc(OCC(=O)N4CC[S+]([O-])CC4)cc3)(CCCc3ccc(OCC(=O)N4CC[S+]([O-])CC4)cc3)C2)nc1Cl` [Example 6.30], the IC50 worked out at 209 nM.
Take `N#CCNC(=O)COc1ccc(CCC[N+]2(CCCc3ccc(OCC(=O)NCC#N)cc3)CCC[C@H](NC(=O)c3nc(Cl)c(N)nc3N)C2)cc1` [Example 6.31]: the IC50 worked out at 18 nM.
Regarding `CN(C)C(=O)CN(C)C(=O)COc1ccc(CCC[N+]2(CCCc3ccc(OCC(=O)N(C)CC(=O)N(C)C)cc3)CCC[C@H](NC(=O)c3nc(Cl)c(N)nc3N)C2)cc1` [Example 6.32], the IC50 was 232 nM.
With `Cn1ccnc1CNC(=O)COc1ccc(CCC[N+]2(CCCc3ccc(OCC(=O)NCc4nccn4C)cc3)CCC[C@H](NC(=O)c3nc(Cl)c(N)nc3N)C2)cc1` [Example 6.33], the IC50 came to 21 nM.
With `COCCCN(C)C(=O)COc1ccc(CCC[N+]2(CCCc3ccc(OCC(=O)N(C)CCCOC)cc3)CCC[C@H](NC(=O)c3nc(Cl)c(N)nc3N)C2)cc1` [Example 6.34], the IC50 was 44 nM.
Regarding `Nc1nc(N)c(C(=O)N[C@H]2CCC[N+](CCCc3ccc(OCC(=O)NCCN4CCCC4=O)cc3)(CCCc3ccc(OCC(=O)NCCN4CCCC4=O)cc3)C2)nc1Cl` [Example 6.35], the IC50 stood at 16 nM.
Under `Nc1nc(N)c(C(=O)N[C@H]2CCC[N+](CCCc3ccc(OCC(=O)N4CCC(O)(CO)CC4)cc3)(CCCc3ccc(OCC(=O)N4CCC(O)(CO)CC4)cc3)C2)nc1Cl` [Example 6.36] stands 67 nM.
With `CS(=O)(=O)CCNC(=O)COc1ccc(CCC[N+]2(CCCc3ccc(OCC(=O)NCCS(C)(=O)=O)cc3)CCC[C@H](NC(=O)c3nc(Cl)c(N)nc3N)C2)cc1` [Example 6.37], the IC50 worked out at 28 nM.
Consider `Nc1nc(N)c(C(=O)N[C@H]2CCC[N+](CCCc3ccc(OCC(=O)NCCO)cc3)(CCCc3ccc(OCC(=O)NCCO)cc3)C2)nc1Cl` [Example 6.38], for which the IC50 turned out to be 45 nM.
As for `Nc1nc(N)c(C(=O)N[C@H]2CCC[N+](CCCc3ccc(OCC(=O)NC(CO)c4cccnc4)cc3)(CCCc3ccc(OCC(=O)NC(CO)c4cccnc4)cc3)C2)nc1Cl` (some centres unmarked) [Example 6.39], the IC50 amounted to 11 nM.
Under `Cn1cnc(CNC(=O)COc2ccc(CCC[N+]3(CCCc4ccc(OCC(=O)NCc5cn(C)cn5)cc4)CCC[C@H](NC(=O)c4nc(Cl)c(N)nc4N)C3)cc2)c1` [Example 6.40] stands 21 nM; under `Cn1cncc1CNC(=O)COc1ccc(CCC[N+]2(CCCc3ccc(OCC(=O)NCc4cncn4C)cc3)CCC[C@H](NC(=O)c3nc(Cl)c(N)nc3N)C2)cc1` [Example 6.41], 18 nM; under `Nc1nc(N)c(C(=O)N[C@H]2CCC[N+](CCCc3ccc(OCC(=O)OCC4COCCN4)cc3)(CCCc3ccc(OCC(=O)OCC4COCCN4)cc3)C2)nc1Cl` (some centres unmarked) [Example 6.42], 112 nM.
Take `CS(=O)(=O)CCCNC(=O)COc1ccc(CCC[N+]2(CCCc3ccc(OCC(=O)NCCCS(C)(=O)=O)cc3)CCC[C@H](NC(=O)c3nc(Cl)c(N)nc3N)C2)cc1` [Example 6.43]: the IC50 was determined as 64 nM.
Under `Nc1nc(N)c(C(=O)N[C@H]2CCC[N+](CCCc3ccc(OCC(=O)N4CCn5ccnc5C4)cc3)(CCCc3ccc(OCC(=O)N4CCn5ccnc5C4)cc3)C2)nc1Cl` [Example 6.44] stands 88 nM; under `C[S+]([O-])CCNC(=O)COc1ccc(CCC[N+]2(CCCc3ccc(OCC(=O)NCC[S+](C)[O-])cc3)CCC[C@H](NC(=O)c3nc(Cl)c(N)nc3N)C2)cc1` (some centres unmarked) [Example 6.45], 39 nM.
To `CN1CCC(NC(=O)COc2ccc(CCC[N+]3(CCCc4ccc(OCC(=O)NC5CCN(C)C5=O)cc4)CCC[C@H](NC(=O)c4nc(Cl)c(N)nc4N)C3)cc2)C1=O` (some centres unmarked) [Example 6.46] belongs 83 nM.
On to `CN1CCOC(CNC(=O)COc2ccc(CCC[N+]3(CCCc4ccc(OCC(=O)NCC5CN(C)CCO5)cc4)CCC[C@H](NC(=O)c4nc(Cl)c(N)nc4N)C3)cc2)C1` (some centres unmarked) [Example 6.47], for which the IC50 was found to be 11 nM.
For the compound `CN(CCS(C)(=O)=O)C(=O)COc1ccc(CCC[N+]2(CCCc3ccc(OCC(=O)N(C)CCS(C)(=O)=O)cc3)CCC[C@H](NC(=O)c3nc(Cl)c(N)nc3N)C2)cc1` [Example 6.48], the IC50 is 85 nM.
For the compound `CO[C@H]1COC[C@@H]1NC(=O)COc1ccc(CCC[N+]2(CCCc3ccc(OCC(=O)N[C@H]4COC[C@@H]4OC)cc3)CCC[C@H](NC(=O)c3nc(Cl)c(N)nc3N)C2)cc1` [Example 6.49], the IC50 was 27 nM.
As for `Nc1nc(N)c(C(=O)N[C@H]2CCC[N+](CCCc3ccc(OCC(=O)NCCc4ccccn4)cc3)(CCCc3ccc(OCC(=O)NCCc4ccccn4)cc3)C2)nc1Cl` [Example 6.50], the IC50 is 6 nM.
Under `Nc1nc(N)c(C(=O)N[C@H]2CCC[N+](CCCc3ccc(OCC(=O)NCCc4cccnc4)cc3)(CCCc3ccc(OCC(=O)NCCc4cccnc4)cc3)C2)nc1Cl` [Example 6.51] stands 5 nM.

By IC50 is commonly meant the concentration needed to halve the response being measured.
